Data taken from publication PMC8245773, “Brevibacillin 2V, a Novel Antimicrobial Lipopeptide With an Exceptionally Low Hemolytic Activity” (Frontiers in Microbiology, 2021).
*1 amine or outer side, *2 acyl side, *3 side chain or, on linkers, in order; H or OH if unused. Where a SMILES comes first, the peptide text is derived from it. [ ]: non-standard residue; d: D form. The star is where a group is joined. X2 = CC=C(N[*:1])C(=O)[*:2]; dOrn = NCCC[C@@H](N)C(=O)O; Valol = CC(C)[C@@H](CO)N*; X1 = CCC(C)C(O)C(=O)*

Tests used:
human erythrocytes = assay: Hemolytic activity; conditions: 1 h
Experimental: This assay was performed as per the method described in previous studies ([Ling et al., 2015]; [Li et al., 2018]). Briefly, erythrocytes were isolated from a healthy human volunteer donor (ordered from Sanquin, Netherlands^1) and washed with phosphate-buffered saline (PBS) three times. After that, peptides were added at final concentrations of 128, 64, 32, 16, 8, 4, 2, 1, and 0 mg/L in PBS containing 2% (v/v) erythrocytes. The cells were incubated at 37°C for 1 h and centrifuged for 5 min at 8,000 g. The supernatant was transferred to a 96-well plate, and the absorbance was measured at a wavelength of 450 nm with a Thermo Scientific Varioskan^TM LUX multimode microplate reader. The absorbance relative to the positive control, which was treated with 10% Triton X-100, was defined as the percentage of hemolysis. The 50% human blood cell hemolysis concentration (HC50) of peptides was calculated as described in previous studies ([Reed and Muench, 1938]).
(§1) GraphPad Prism 7.0 was used to fit the data of hemolytic assay and cytotoxicity assay in Figure 3. The experiments were conducted in triplicate, and data are presented as the mean value of triplicate experiments. Data Explorer Software was used to analyze the MALDI-TOF data; Thermo Scientific Xcalibur software was used to analyze the LC–MS/MS data. The statistical significance of the data was assessed using Duncan’s multiple-range test with the software SPSS Statistics 19.0. P-values less than 0.05 were considered to be statistically significant.

HepG2 cells = test system: HepG2 cells
Experimental: The cytotoxicity of brevibacillins was evaluated on HepG2 cells by using the XTT (Cell Proliferation Kit XTT, AppliChem) assay ([Roehm et al., 1991]). HepG2 cells [in Dulbecco’s modified Eagle’s medium (DMEM) supplemented with 10% fetal bovine serum] were seeded into 96-well plates and incubated at 37°C with 5% CO2. After 24 h, the medium was replaced with a fresh medium (DMEM with 2% FBS, 100 μl per well) containing different concentrations of brevibacillins ([Zhao et al., 2017]). After 24 h of incubation, the XTT reagent was added to the cultures according to the manufacturer’s instructions, and the plates were incubated at 37°C for 2 h with 5% CO2. Subsequently, the absorbance values were measured by using a Varioskan^TM LUX multimode microplate reader (Thermo Fisher Scientific) at 485 nm (reference, 690 nm). The 50% cell toxicity (CC50) of peptides was calculated as described in a previous study ([Reed and Muench, 1938]).
as §1

E. coli ATCC 25922 = assay: Synergy assay, checkerboard method; conditions: for FICI: synergistic ≤0.5; for MIC of antibiotic at brevibacillin 0 mg/L / MIC of antibiotic at brevibacillin 2V 0 mg/L / MIC of antibiotic at brevibacillin I 0 mg/L / MIC of antibiotic at brevibacillin V 0 mg/L: checkerboard, 5 × 10^5 cfu/ml, 37°C, 20 h, antibiotic alone;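 for all read-outs here: growth read as OD600 in microplates, with antibiotics tested across twofold serial dilutions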
Experimental: (§2) Briefly, antibiotics were diluted in twofold series, while brevibacillins were added at a certain final concentration of 1, 2, or 4 mg/L. Indicator strains were added at a final concentration of 5 × 10^5 cfu/ml. After incubation at 37°C for 20 h, the OD600 of plates was determined. The fractional inhibitory concentration index (FICI) was calculated using the following formula: FICI = (MIC compound A in combination with B / MIC compound A) + (MIC compound B in combination with A / MIC compound B).

A. baumannii ATCC17978 = assay: Synergy assay, checkerboard method; conditions: A. baumannii ATCC17978; for FICI: synergistic ≤0.5; for MIC of antibiotic at brevibacillin 0 mg/L / MIC of antibiotic at brevibacillin 2V 0 mg/L / MIC of antibiotic at brevibacillin I 0 mg/L / MIC of antibiotic at brevibacillin V 0 mg/L: checkerboard, 5 × 10^5 cfu/ml, 37°C, 20 h, antibiotic alone
Experimental: as §2

P. aeruginosa LMG6395 = assay: Synergy assay, checkerboard method; conditions: for FICI: synergistic ≤0.5; for MIC of antibiotic at brevibacillin 0 mg/L / MIC of antibiotic at brevibacillin 2V 0 mg/L / MIC of antibiotic at brevibacillin I 0 mg/L / MIC of antibiotic at brevibacillin V 0 mg/L: checkerboard, 5 × 10^5 cfu/ml, 37°C, 20 h, antibiotic alone;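 for all read-outs here: antibiotics tested in twofold serial dilutions, with inhibition judged from plate OD600 readings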
Experimental: as §2

K. pneumoniae LMG20218 = assay: Synergy assay, checkerboard method; conditions: for MIC of antibiotic at brevibacillin 0 mg/L / MIC of antibiotic at brevibacillin 2V 0 mg/L / MIC of antibiotic at brevibacillin I 0 mg/L / MIC of antibiotic at brevibacillin V 0 mg/L: checkerboard, 5 × 10^5 cfu/ml, 37°C, 20 h, antibiotic alone; for FICI: synergistic ≤0.5
Experimental: as §2

[1] = antibiotic + brevibacillin 2V, E. coli ATCC 25922
[2] = antibiotic + brevibacillin I, E.coli ATCC 25922
[3] = antibiotic + brevibacillin V, E.coli ATCC 25922
[4] = antibiotic + brevibacillin, E.coli ATCC 25922

Row | Structure (SMILES) | FICI (E. coli ATCC 25922; [1]) | FICI (E. coli ATCC 25922; [2]) | FICI (E. coli ATCC 25922; [3]) | FICI (E. coli ATCC 25922; [4]) | MIC of antibiotic at brevibacillin 0 mg/L (E. coli ATCC 25922; E.coli ATCC 25922) [µg/mL] | MIC of antibiotic at brevibacillin 2V 0 mg/L (E. coli ATCC 25922; E.coli ATCC 25922) [µg/mL] | MIC of antibiotic at brevibacillin I 0 mg/L (E. coli ATCC 25922; E.coli ATCC 25922) [µg/mL] | MIC of antibiotic at brevibacillin V 0 mg/L (E. coli ATCC 25922; E.coli ATCC 25922) [µg/mL] | FICI (A. baumannii ATCC17978; antibiotic + brevibacillin 2V) | FICI (A. baumannii ATCC17978; antibiotic + brevibacillin I) | FICI (A. baumannii ATCC17978; antibiotic + brevibacillin V) | FICI (A. baumannii ATCC17978; antibiotic + brevibacillin) | MIC of antibiotic at brevibacillin 0 mg/L (A. baumannii ATCC17978) [µg/mL] | MIC of antibiotic at brevibacillin 2V 0 mg/L (A. baumannii ATCC17978) [µg/mL] | MIC of antibiotic at brevibacillin I 0 mg/L (A. baumannii ATCC17978) [µg/mL] | MIC of antibiotic at brevibacillin V 0 mg/L (A. baumannii ATCC17978) [µg/mL] | FICI (P. aeruginosa LMG6395; antibiotic + brevibacillin 2V) | FICI (P. aeruginosa LMG6395; antibiotic + brevibacillin I) | FICI (P. aeruginosa LMG6395; antibiotic + brevibacillin V) | FICI (P. aeruginosa LMG6395; antibiotic + brevibacillin) | other results
1 | CC=C(NC(=O)C(O)C(C)CC)C(=O)N[C@@H](CC(C)C)C(=O)N[C@H](CCCN)C(=O)N[C@H](C(=O)N[C@H](C(=O)N[C@H](C(=O)N[C@H](CCCCN)C(=O)N[C@H](C(=O)N[C@H](C(=O)N[C@@H](CCCCN)C(=O)N[C@H](Cc1ccc(O)cc1)C(=O)N[C@@H](CC(C)C)C(=O)N[C@H](CO)C(C)C)C(C)C)C(C)C)C(C)C)C(C)C)C(C)C (stereo partly drawn) [brevibacillin 2V] (X1-[X2]L[dOrn]VVV[dK]VVK[dY]L-Valol) | – | – | – | – | – | – | – | – | – | – | – | – | – | – | – | – | – | – | – | – | hemolytic activity at 128 mg/L (human erythrocytes; 128 mg/L, human erythrocytes, 37°C): No hemolytic activity; HC50 (concentration that causes 50% hemolysis of human red blood cells) (human erythrocytes; red cells of human): > 128 mg/L; CC50 (HepG2) relative to MIC values against bacterial pathogens (HepG2 cells): 23 fold; cytotoxicity to HepG2 cells at 32 mg/L (HepG2 cells): no cytotoxicity; HepG2 CC50 (HepG2 cells; 24 h): 45.49 ± 0.24 µg/mL
2 | CO[C@H]1/C=C/O[C@@]2(C)Oc3c(C)c(O)c4c(O)c(c(/C=N/N5CCN(C)CC5)c(O)c4c3C2=O)NC(=O)/C(C)=C\C=C\[C@H](C)[C@H](O)[C@@H](C)[C@@H](O)[C@@H](C)[C@H](OC(C)=O)[C@@H]1C [Rifampicin] | 0.313 | 0.531 | 0.375 | 0.250 | 4 | 4 | 4 | 4 | 0.375 | 0.516 | 0.516 | 0.281 | 32 | 32 | 32 | 32 | 0.516 | 0.516 | 0.516 | 0.281 | MIC of antibiotic at brevibacillin 0 mg/L (P. aeruginosa LMG6395): 32 µg/mL; MIC of antibiotic at brevibacillin 2V 0 mg/L (P. aeruginosa LMG6395): 32 µg/mL; MIC of antibiotic at brevibacillin I 0 mg/L (P. aeruginosa LMG6395): 32 µg/mL; MIC of antibiotic at brevibacillin V 0 mg/L (P. aeruginosa LMG6395): 32 µg/mL; MIC of antibiotic at brevibacillin 0 mg/L (K. pneumoniae LMG20218): 64 µg/mL; MIC of antibiotic at brevibacillin 2V 0 mg/L (K. pneumoniae LMG20218): 64 µg/mL; MIC of antibiotic at brevibacillin I 0 mg/L (K. pneumoniae LMG20218): 64 µg/mL; MIC of antibiotic at brevibacillin V 0 mg/L (K. pneumoniae LMG20218): 64 µg/mL
3 | CC[C@H]1OC(=O)[C@H](C)[C@@H](O[C@H]2C[C@@](C)(OC)[C@@H](O)[C@H](C)O2)[C@H](C)[C@@H](O[C@@H]2O[C@H](C)C[C@H](N(C)C)[C@H]2O)[C@](C)(O)C[C@@H](C)CN(C)[C@H](C)[C@@H](O)[C@]1(C)O [Azithromycin] | 0.281 | 0.375 | 0.563 | 0.188 | 2 | 2 | 2 | 2 | 0.531 | 0.516 | 1.016 | 0.531 | 16 | 16 | 16 | 16 | 0.266 | 0.266 | 0.516 | 0.516 | MIC of antibiotic at brevibacillin 0 mg/L (P. aeruginosa LMG6395): 128 µg/mL; MIC of antibiotic at brevibacillin 2V 0 mg/L (P. aeruginosa LMG6395): 128 µg/mL; MIC of antibiotic at brevibacillin I 0 mg/L (P. aeruginosa LMG6395): 128 µg/mL; MIC of antibiotic at brevibacillin V 0 mg/L (P. aeruginosa LMG6395): 128 µg/mL; FICI (K. pneumoniae LMG20218; antibiotic + brevibacillin 2V): 1.031; FICI (K. pneumoniae LMG20218; antibiotic + brevibacillin I): 1.016; FICI (K. pneumoniae LMG20218; antibiotic + brevibacillin V): 1.016; FICI (K. pneumoniae LMG20218; antibiotic + brevibacillin): 1.031; MIC of antibiotic at brevibacillin 0 mg/L (K. pneumoniae LMG20218): 16 µg/mL; MIC of antibiotic at brevibacillin 2V 0 mg/L (K. pneumoniae LMG20218): 16 µg/mL; MIC of antibiotic at brevibacillin I 0 mg/L (K. pneumoniae LMG20218): 16 µg/mL; MIC of antibiotic at brevibacillin V 0 mg/L (K. pneumoniae LMG20218): 16 µg/mL
